According to the supplement of paper PMC10307832:

compound: CC1CC(=O)N(C2=CN=C(N=C2N1C3CCCC3)NC4=C(C=C(C=C4)C(=O)NC5CCN(CC5)C)OC)C [NPK76-II-72-1] + Cc1nc(Nc2ncc(C(=O)Nc3c(C)cccc3Cl)s2)cc(N2CCN(CCO)CC2)n1 [Dasatinib] (partner 0.075 µM); experiment: relative viability (nuclei count vs DMSO), 5 days (fraction); higher = more cells survive; details: first compound 0.01 µM
Procedure, shortened: (§1)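 Lung cancer cell lines were pin-tool dosed in 1536-well plates on the day after seeding, with either a lone drug or a fixed anchor-drug dose plus five library-drug doses (not always all listed) in √10 steps. Nuclei were counted on 4× images after 5 days. Relative viability is the ratio of treated-well to vehicle-well nuclei counts, with each value a median of duplicate plates.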

Cell Line	relative viability
NCI-H727	0.327
NCI-H1650	0.308
NCI-H1993	0.442
SW 1573	0.46
NCI-H838	0.28
LCLC-103H	0.418
NCI-H520	0.203
NCI-H2126	0.594
EMC-BAC-2	0.345
NCI-H2085	0.258
HCC-366	0.593
NCI-H1666	0.705
NCI-H596	0.544
LK-2	0.299
NCI-H2087	0.873
NCI-H2342	0.345
SK-MES-1	0.468
H3255	0.406
COR-L23	0.439
COR-L 105	0.33
LOU-NH91	0.52
ChaGo-K-1	0.577
NCI-H2170	0.599
NCI-H2405	0.236
HOP-62	0.585
SW 900	0.496
LU99A	0.404
HCC-78	0.384
NCI-H1792	0.799
NCI-H1563	0.465

same assay, conditions: first compound 0.03162 µM

Cell Line	relative viability
NCI-H522	0.887
NCI-H1623	0.522
NCI-H727	0.298
NCI-H1650	0.314
NCI-H1993	0.654
SW 1573	0.592
NCI-H838	0.247
LCLC-103H	0.442
NCI-H520	0.172
NCI-H2126	0.591
EMC-BAC-2	0.295
NCI-H2085	0.266
HCC-366	0.633
NCI-H1666	0.841
NCI-H596	0.668
LK-2	0.275

Cell Line	relative viability
NCI-H2087	0.873
NCI-H2342	0.301
SK-MES-1	0.352
H3255	0.314
COR-L23	0.533
COR-L 105	0.317
LOU-NH91	0.498
ChaGo-K-1	0.624
NCI-H2170	0.487
NCI-H2405	0.209
HOP-62	0.653
SW 900	0.574
LU99A	0.505
HCC-78	0.363
NCI-H1563	0.416

same assay, conditions: first compound 0.1 µM

Cell Line	relative viability
NCI-H522	1.09
NCI-H1623	0.554
NCI-H727	0.316
NCI-H1650	0.405
NCI-H1993	0.619
SW 1573	0.556
NCI-H838	0.253
LCLC-103H	0.404
NCI-H520	0.178
NCI-H2126	0.58
EMC-BAC-2	0.346
NCI-H2085	0.24
HCC-366	0.638
NCI-H1666	0.723
NCI-H596	0.551
LK-2	0.322

Cell Line	relative viability
NCI-H2087	0.813
NCI-H2342	0.328
SK-MES-1	0.399
H3255	0.323
COR-L23	0.554
COR-L 105	0.384
LOU-NH91	0.528
ChaGo-K-1	0.505
NCI-H2170	0.598
NCI-H2405	0.194
HOP-62	0.633
SW 900	0.378
LU99A	0.51
HCC-78	0.449
NCI-H1792	0.842
NCI-H1563	0.469

same assay, conditions: first compound 0.3162 µM

Cell Line	relative viability
NCI-H522	0.86
NCI-H1623	0.401
NCI-H727	0.397
NCI-H1650	0.293
NCI-H1993	0.548
SW 1573	0.589
NCI-H838	0.265
LCLC-103H	0.535
NCI-H520	0.187
NCI-H2126	0.607
EMC-BAC-2	0.333
NCI-H2085	0.227
HCC-366	0.606
NCI-H1666	0.832
NCI-H596	0.591
LK-2	0.233

Cell Line	relative viability
NCI-H2087	0.941
NCI-H2342	0.262
SK-MES-1	0.341
H3255	0.245
COR-L23	0.433
COR-L 105	0.323
LOU-NH91	0.401
ChaGo-K-1	0.53
NCI-H2170	0.315
NCI-H2405	0.213
HOP-62	0.672
SW 900	0.78
LU99A	0.442
HCC-78	0.346
NCI-H1792	0.66
NCI-H1563	0.461

same assay, conditions: first compound 1 µM

Cell Line	relative viability
NCI-H522	0.828
NCI-H1623	0.545
NCI-H727	0.409
NCI-H1650	0.265
NCI-H1993	0.759
SW 1573	0.509
NCI-H838	0.292
LCLC-103H	0.447
NCI-H520	0.252
NCI-H2126	0.709
EMC-BAC-2	0.367
NCI-H2085	0.22
HCC-366	0.635
NCI-H1666	0.912
NCI-H596	0.557
LK-2	0.244

Cell Line	relative viability
NCI-H2087	0.71
NCI-H2342	0.346
SK-MES-1	0.403
H3255	0.35
COR-L23	0.526
COR-L 105	0.467
LOU-NH91	0.612
ChaGo-K-1	0.596
NCI-H2170	0.762
NCI-H2405	0.212
HOP-62	0.64
SW 900	0.572
LU99A	0.674
HCC-78	0.402
NCI-H1792	0.726
NCI-H1563	0.425

compound: CC1CC(=O)N(C2=CN=C(N=C2N1C3CCCC3)NC4=C(C=C(C=C4)C(=O)NC5CCN(CC5)C)OC)C [NPK76-II-72-1] + O=C(CCCCCCC(=O)Nc1ccccc1)NO [Vorinostat] (partner 1 µM); experiment: as above; details: first compound 0.01 µM
Procedure, shortened: as §1

Cell Line	relative viability
NCI-H522	0.736
